Test: xn = mol fraction of the nth substance listed
Conditions: 101 kPa

C[P+](c1ccccc1)(c1ccccc1)c1ccccc1.[Br-] + OCCOCCO
x2 = 0.8
Conditions | electrical conductivity [S/m] | viscosity [mPa·s]
293.15 K | 0.0618 | 141
303.15 K | 0.0986 | 103
313.15 K | 0.132 | 60.6
323.15 K | 0.18 | 38.7
333.15 K | 0.258 | 27
343.15 K | 0.294 | 20.4
353.15 K | 0.337 | 18.3

[Cl-].c1ccc(C[P+](c2ccccc2)(c2ccccc2)c2ccccc2)cc1 + OCCOCCO
x2 = 0.875
Conditions | electrical conductivity [S/m] | viscosity [mPa·s]
293.15 K | 0.0466 | –
303.15 K | 0.0706 | 102
323.15 K | 0.116 | 42.3
333.15 K | 0.147 | 30
343.15 K | 0.158 | 22.8

[Cl-].c1ccc(C[P+](c2ccccc2)(c2ccccc2)c2ccccc2)cc1 + OCCO
x1 = 0.083
Conditions | electrical conductivity [S/m] | viscosity [mPa·s]
303.15 K | 0.241 | 43.7
323.15 K | 0.365 | 24.2
333.15 K | 0.441 | 18.4
343.15 K | 0.527 | 14.3
353.15 K | 0.623 | 11.3

C[P+](c1ccccc1)(c1ccccc1)c1ccccc1.[Br-] + OCCO
x1 = 0.25
Conditions | electrical conductivity [S/m] | viscosity [mPa·s]
293.15 K | 0.119 | 211
303.15 K | 0.153 | 136
313.15 K | 0.192 | 89.5
323.15 K | 0.238 | 60.6
333.15 K | 0.291 | 42
343.15 K | 0.352 | 29.7
353.15 K | 0.422 | 21.5

Source: a compilation of properties of binary mixtures (doi:10.1016/j.molliq.2018.12.032)
